Measurements taken from publication PMC8147976, “Partitioning and Spatial Distribution of Drugs in Ocular Surface Tissues” (Pharmaceutics, 2021).
Read-outs that look alike come from different tables or passages of the source. Each block holds one compound with its values, some of them ahead of it.

Legend:
[1] = for ratio of signal against twice the signal of propranolol, Epithelium 10 min / ratio of signal against twice the signal of propranolol, Epithelium 60 min: rabbit corneal epithelium; for ratio of signal against twice the signal of propranolol, Epithelium 10 min / ratio of signal against twice the signal of propranolol, Stroma 10 min: 10 min after eye drop; for ratio of signal against twice the signal of propranolol, Epithelium 10 min / ratio of signal against twice the signal of propranolol, Epithelium 60 min / ratio of signal against twice the signal of propranolol, Stroma 10 min / ratio of signal against twice the signal of propranolol, Stroma 60 min: MALDI-IMS; for ratio of signal against twice the signal of propranolol, Epithelium 60 min / ratio of signal against twice the signal of propranolol, Stroma 60 min: 60 min after eye drop; for ratio of signal against twice the signal of propranolol, Stroma 10 min / ratio of signal against twice the signal of propranolol, Stroma 60 min: rabbit corneal stroma
Procedure: Three months old female New Zealand White rabbits, 2.5–2.8 kg (Envigo Laboratories, Blackthron, Bicester, UK), were used in the study to determine the distribution of drugs in the cornea. […] The rabbits were sacrificed by injecting a lethal dose (2 mL/kg) of pentobarbital (Mebunat vet 60 mg/mL; Orion Pharma, Finland) into the marginal ear vein at 10, 20, and 60 min post-dosing. The eyes were removed and snap-frozen with liquid nitrogen in plastic tubes and stored at −80 °C until sample preparation and analysis with MALDI-IMS.
The frozen eyes were mounted onto a chuck using an optimal cutting temperature compound (Sakura Finetek, Torrance, CA, USA). The samples were sectioned to 20 μm or 35 μm thickness at −20 °C on a Leica CM Cryostat (S3050, Leica Microsystems GmbH, Wetzlar, Germany) and collected on a cryo-film (3C16UF, SECTION-LAB Co. Ltd., Yokohama, Japan) by a modified Kawamoto method. The film was subsequently mounted onto a microscope glass slide using a double-sided copper tape, and the sample slides were dried in a lyophilization chamber. The slides were washed twice with 50 mM ammonium formate for 10 s and dried in a vacuum desiccator. The sample slides contained sections from three eyes from the eye drop experiment and three blanks. The matrix α-cyano-4hydroxycinnamic acid (CHCA) (7 mg/mL in 50% acetonitrile containing 1% trifluoro acetic acid) (Sigma-Aldrich, St. Louis, MO, USA) was added via spray deposition using 10 passes, flow rate of 100 μL/min, temperature of 77 °C, track spacing of 2.5 mm, and velocity of 1300 mm/min (TM-Sprayer, HTX Technologies, Chapel Hill, NC, USA).
Fourier transform-ion cyclotron resonance (FT-ICR) MALDI-IMS was performed using a Bruker 7T SolariX XR mass spectrometer (Bruker Daltonics, Bremen, Germany) at 50 μm spatial resolution for the corneal area and 150 μm spatial resolution for the rest of the eye. […] MALDI images of each signal were plotted with a 5 mDa mass window using flexImaging^TM software (v4.1, Bruker Daltonics, Bremen, Germany) with datasets normalized by the RMS method and pixel interpolation.
The data for calculation was obtained by taking six crosscuts through the cornea; no normalization was used.

[2] = cited from earlier work
[3] = Drug distribution in porcine ocular tissues ex vivo, comparison across tissues; assay type: in vitro ADME; conditions: for time to reach equilibrium in tissue: porcine tissues ex vivo, Figure 1
Source text: Cornea. […] Bulbar conjunctiva.

[4] = ex vivo, 180 min epithelial side exposure, donor 2 ng/µL
[5] = ex vivo, 180 min epithelial side exposure, donor 2 ng/µL; remark: listed apart in the source
[6] = ex vivo, 180 min epithelial side exposure, donor 2 ng/µL; remark: listed apart in the source
in vitro = conditions: pig, pH 7.4
[7] = de-epithelized vs intact cornea; ref [29],[46]; cited from earlier work
[8] = parameters: method as in PMID 3246568; conditions: inferior drug insert application, rabbit; ref [56]; cited from earlier work
[9] = n-octanol/buffer solution distribution coefficient at pH 7.4, ref [10],[44]

Structure (SMILES): CC(C)NCC(O)COc1cccc2[nH]ccc12 (stereo not drawn) [Pindolol]
ratio of signal against twice the signal of propranolol, Epithelium 10 min [1]: 0.21 ± 0.01 | ratio of signal against twice the signal of propranolol, Epithelium 60 min [1]: 0.356± 0.08 | ratio of signal against twice the signal of propranolol, Stroma 10 min [1]: 0.57 ± 0.00 | ratio of signal against twice the signal of propranolol, Stroma 60 min [1]: 0.83 ± 0.13 | Log D7.4 ([2]; as listed in Table S2): 0.06 | Log D7.4 [2, 9]: −0.5

difference in concentration between corneal epithelium, corneal stroma and conjunctiva ([3]; ex vivo): two-fold | time to reach equilibrium in tissue [3]: ≈ 30 min
Structure (SMILES): CC(C)NCC(O)COc1ccc(CC(N)=O)cc1 (stereo not drawn) [Atenolol]

Structure (SMILES): CC(C)NCC(O)COc1cccc2ccccc12 (stereo not drawn) [Propranolol]
time to reach equilibrium in tissue [3]: ≈ 60 min | MALDI-IMS signal intensity in corneal tissues and aqueous humor ([1]; rabbit, in vivo): highest intensity | concentration in corneal epithelium [4]: 9.46 ng/mg tissue | concentration in corneal stroma [5]: 0.83 ng/mg | concentration in conjunctiva [6]: 1.24 ng/mg | Kp at 3 h, 2 µg/mL (in vitro): 4.7 | change of permeability in de-epithelized corneas [7]: only modest or no changes

Structure (SMILES): CC(C)(C)NC[C@H](O)COc1nsnc1N1CCOCC1 [Timolol]
time to reach equilibrium in tissue [3]: ≈ 30 min | ratio of signal against twice the signal of propranolol, Epithelium 10 min [1]: 0.19 ± 0.02 | ratio of signal against twice the signal of propranolol, Epithelium 60 min [1]: 0.25 ± 0.08 | ratio of signal against twice the signal of propranolol, Stroma 10 min [1]: 0.36 ± 0.01 | ratio of signal against twice the signal of propranolol, Stroma 60 min [1]: 0.45 ± 0.17 | MALDI-IMS signal in corneal tissues and aqueous humor ([1]; rabbit, in vivo): below the limit of detection in many pixels | Log D7.4 [2, 9]: −1.43 | timolol levels in the inferior relative to the superior cornea [8]: 4–6 fold

time to reach equilibrium in tissue [3]: ≈ 60 min
Structure (SMILES): CC(C)NCC(O)COc1ccc(CCOCC2CC2)cc1 (stereo not drawn) [Betaxolol]
Log D7.4 ([2]; as listed in Table S2): 0.43 | Log D7.4 [2, 9]: 0.43 | change of permeability in de-epithelized corneas [7]: only modest or no changes

Structure (SMILES): COCCc1ccc(OCC(O)CNC(C)C)cc1 (stereo not drawn) [Metoprolol]
Log D7.4 ([2]; as listed in Table S2): −0.5

time to reach equilibrium in tissue [3]: ≈ 30 min
Structure (SMILES): CC(C)(C)NCC(O)COc1cccc2c1CC(O)C(O)C2 (stereo not drawn) [Nadolol]
Log D7.4 [2, 9]: −1.54
